The record followed here is PubChem BioAssay (NCI).

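Tested at 5 concentrations; 48 h exposure; 96-well plates; endpoints linearly interpolated, else capped at highest concentration. Definition used: TGI = concentration required for complete inhibition of growth.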

Some test systems named below: A498 renal; EKVX NSCLC; HCT-116 colon; KM12 colon; NCI-H23 lung; NCI-H522 lung; OVCAR-5 ovarian; SW-620 colon; UO-31 renal; MOLT-4 leukemia.
What all share (assay): NCI-60 cell line screen, 48 h

Take `CCC(=O)OC1CCn2c1nc1c2C(=O)C(C)=C(NC(C)=O)C1=O` (centres undefined): the TGI in the test on A498 renal worked out at 32.5 µM; with EKVX NSCLC it was 3.53 µM; with HCT-116 colon, 3.21 µM; with KM12 colon, 4.03 µM; in the test with NCI-H23 lung, 3.49 µM; in the test on NCI-H522 lung, 2.94 µM. Further, the TGI in the test on OVCAR-5 ovarian amounted to 3.39 µM; with SW-620 colon it was 2.93 µM; with UO-31 renal, 4.73 µM.
On to `COC(CNC(=O)CNC(=O)c1ccc(C(F)(F)F)cc1)OC`, for which the TGI with EKVX NSCLC, with HCT-116 colon, in the test with KM12 colon, in the test on MOLT-4 leukemia, with NCI-H23 lung and in the test with NCI-H522 lung was over 100 µM in each case. Further, the TGI in the test on OVCAR-5 ovarian, with SW-620 colon and in the test on UO-31 renal was over 100 µM throughout.
`c1ccc(CN2CCC(=NN3CCCCC3)CC2)cc1`: the TGI in the test with EKVX NSCLC, in the test with HCT-116 colon, in the test on KM12 colon, in the test with MOLT-4 leukemia, in the test on NCI-H23 lung and in the test on NCI-H522 lung was over 100 µM throughout. Moreover, the TGI in the test with OVCAR-5 ovarian, in the test with SW-620 colon and in the test on UO-31 renal was over 100 µM each time.
With `CC1CC(=O)Nc2ccc(Cl)cc2N1C(=O)CN1CCC(CCCCN(C)C)CC1` (centres undefined), the TGI in the test on A498 renal, in the test with HCT-116 colon, with MOLT-4 leukemia, in the test on NCI-H23 lung, in the test on OVCAR-5 ovarian and in the test on SW-620 colon was over 100 µM in each case. The TGI with UO-31 renal was over 100 µM.
As to `CC(=O)Nc1ccc(-c2nnc(SCC(=O)Nc3cccc(C)c3)o2)cc1`, the TGI was 24.1 µM in the test on HCT-116 colon; 22.6 µM in the test on KM12 colon; over 100 µM in the test on MOLT-4 leukemia; 20.4 µM in the test on NCI-H23 lung; 16.7 µM with NCI-H522 lung; 26.7 µM in the test with OVCAR-5 ovarian. Further, the TGI in the test with SW-620 colon came to 25.4 µM; in the test with UO-31 renal it was 26.3 µM.
`CCCCn1c(-c2ccccc2)cs/c1=N\N=C1C=C(C(C)(C)C)C(=O)C(C(C)(C)C)=C1`: the TGI with A498 renal, in the test with EKVX NSCLC, with HCT-116 colon, in the test with MOLT-4 leukemia, in the test on NCI-H23 lung and with OVCAR-5 ovarian was over 100 µM each time. For the same compound, the TGI in the test on SW-620 colon and in the test on UO-31 renal was over 100 µM each time.
Take `CCOC(=O)COc1cc(-c2ccccc2F)nc2cc3c(cc12)OCO3`: the TGI with EKVX NSCLC was over 100 µM; in the test on HCT-116 colon, over 100 µM; in the test with KM12 colon, over 100 µM; in the test with MOLT-4 leukemia it was 84.5 µM; with NCI-H23 lung, over 100 µM; in the test with OVCAR-5 ovarian, over 100 µM. Also, the TGI in the test with SW-620 colon was over 100 µM.
For the compound `CC(NC(=O)Cc1ccc(OP(=O)(OCc2ccc([N+](=O)[O-])o2)N(C)CCCCCl)cc1)c1ccc(OCC2CCCCC2)c(C(N)=O)c1` (centres undefined), the TGI in the test with A498 renal amounted to 7.39 µM; in the test on HCT-116 colon, 4.52 µM; with KM12 colon it was 5.91 µM; in the test with MOLT-4 leukemia, 4.38 µM; in the test on NCI-H23 lung, 5.12 µM; in the test with NCI-H522 lung, 5.18 µM. The TGI with OVCAR-5 ovarian was determined as 8.78 µM; with SW-620 colon, 10.2 µM; with UO-31 renal, 8.45 µM.
In the case of `Cc1ccc(Nc2c3c(c(C#N)c4nc5ccccc5n24)CCCC3)cc1`, the TGI in the test with EKVX NSCLC is over 100 µM; in the test with HCT-116 colon, 36.8 µM; in the test with KM12 colon, over 100 µM; in the test with MOLT-4 leukemia it was 40.6 µM; in the test with NCI-H23 lung, over 100 µM; in the test with NCI-H522 lung, 82.4 µM. Also, the results for the TGI with OVCAR-5 ovarian, in the test on SW-620 colon and with UO-31 renal were 95 µM, 61 µM and 65.6 µM, respectively.
Take `CN(C)CCCNC(=O)N/N=C/c1ccc(O)cc1`: the TGI in the test on A498 renal, with HCT-116 colon, with KM12 colon, with MOLT-4 leukemia, with NCI-H23 lung and with NCI-H522 lung was over 100 µM throughout. The TGI in the test on OVCAR-5 ovarian, in the test on SW-620 colon and in the test on UO-31 renal was over 100 µM in each case.
In the case of `COC(=O)[C@H](CNC(=O)/C=C/c1ccc(OC(C)=O)c(OC(C)=O)c1)NC(=O)/C=C/c1ccc(OC(C)=O)c(OC(C)=O)c1`, the TGI in the test on A498 renal, in the test with EKVX NSCLC, with HCT-116 colon, in the test with KM12 colon, with MOLT-4 leukemia and in the test on NCI-H23 lung was over 100 µM throughout. Moreover, the TGI in the test on OVCAR-5 ovarian and with SW-620 colon was over 100 µM each time.
On to `CC(=O)Nc1ccc(NC(=O)CC(=O)Nc2ccc(NC(C)=O)cc2)cc1`, for which the TGI in the test with A498 renal, in the test on EKVX NSCLC, in the test on HCT-116 colon, in the test with KM12 colon, in the test on MOLT-4 leukemia and in the test with NCI-H23 lung was over 100 µM throughout. The TGI with NCI-H522 lung, in the test with SW-620 colon and with UO-31 renal was over 100 µM in each case.
As to `O=C(NN1C(=O)C(Cl)C1c1cccc(O)c1)c1ccccc1O` (centres undefined), the TGI in the test with A498 renal, in the test with HCT-116 colon, in the test on KM12 colon, in the test with MOLT-4 leukemia, in the test with NCI-H23 lung and in the test on NCI-H522 lung was over 100 µM each time. The TGI in the test on UO-31 renal is over 100 µM.
Turning to `O=c1oc2cc(O)ccc2c2[nH]c3cc(O)ccc3c12`, the TGI with A498 renal was over 100 µM; with EKVX NSCLC, 90.1 µM; in the test with HCT-116 colon, 31.5 µM; in the test on KM12 colon it was 53.1 µM; in the test on MOLT-4 leukemia, over 100 µM; in the test on NCI-H23 lung it was 51.5 µM. Besides, the TGI was 32.9 µM in the test with NCI-H522 lung, over 100 µM in the test on SW-620 colon and 97.5 µM in the test with UO-31 renal.
Regarding `Cc1ccc(S(=O)(=O)NC(=O)C2S(=O)(=O)OCCOS2(=O)=O)cc1`, the TGI with EKVX NSCLC, in the test on HCT-116 colon, in the test on KM12 colon, in the test with NCI-H23 lung, with NCI-H522 lung and in the test on SW-620 colon was over 100 µM throughout. The compound further returned a TGI in the test on UO-31 renal of over 100 µM.
